Columns and labels:
[1] = molecular target: T1, human IKKβ (Homo sapiens, UniProt O14920); assay: IKKβ kinase inhibition assay (phosphorylation of IκBα substrate, 33P-ATP); type: biochemical; conditions: flag-tagged human IKKβ 0.9 μg/ml, GST-IκBα (1-54) 53 μg/ml, 250 nM ATP, 1 hour at 25° C.
T1 construct: FLAG (N)
T1 sequence (O14920 1-756): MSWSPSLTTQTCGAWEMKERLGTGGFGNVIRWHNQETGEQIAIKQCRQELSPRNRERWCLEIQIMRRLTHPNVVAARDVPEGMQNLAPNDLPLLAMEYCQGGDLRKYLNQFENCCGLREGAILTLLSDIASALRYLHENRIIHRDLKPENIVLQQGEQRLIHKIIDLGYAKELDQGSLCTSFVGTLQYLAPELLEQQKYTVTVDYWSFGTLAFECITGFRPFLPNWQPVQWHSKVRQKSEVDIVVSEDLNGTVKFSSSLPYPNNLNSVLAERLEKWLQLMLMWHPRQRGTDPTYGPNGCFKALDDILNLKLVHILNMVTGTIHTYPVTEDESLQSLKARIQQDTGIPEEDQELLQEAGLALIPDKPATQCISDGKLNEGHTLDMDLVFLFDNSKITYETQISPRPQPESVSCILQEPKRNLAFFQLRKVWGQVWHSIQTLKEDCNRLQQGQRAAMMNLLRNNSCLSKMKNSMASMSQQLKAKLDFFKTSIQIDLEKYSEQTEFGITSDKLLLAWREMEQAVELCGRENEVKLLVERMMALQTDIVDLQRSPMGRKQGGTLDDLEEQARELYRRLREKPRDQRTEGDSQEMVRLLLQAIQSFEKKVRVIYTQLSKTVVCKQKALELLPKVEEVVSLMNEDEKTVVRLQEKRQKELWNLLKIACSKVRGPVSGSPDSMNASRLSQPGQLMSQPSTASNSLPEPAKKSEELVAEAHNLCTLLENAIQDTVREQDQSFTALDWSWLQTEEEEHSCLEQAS
In short: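 N-terminally Flag-tagged human IKKα (3.6 μg/ml) or IKKβ (0.9 μg/ml) phosphorylating GST-IκBα(1-54) (245 or 53 μg/ml respectively), 250 nM ATP plus [33P]ATP, pH 7.5 HEPES with Mg2+/Mn2+, 2% DMSO; 5 min compound preincubation, 1 h at 25 °C.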

[2] = molecular target: T2, human IKKα (Homo sapiens, UniProt O15111); assay: IKKα kinase inhibition assay (phosphorylation of IκBα substrate, 33P-ATP); type: biochemical; conditions: flag-tagged human IKKα 3.6 μg/ml, GST-IκBα (1-54) 245 μg/ml, 250 nM ATP, 1 hour at 25° C.
T2 construct: FLAG (N)
T2 sequence (O15111 1-745): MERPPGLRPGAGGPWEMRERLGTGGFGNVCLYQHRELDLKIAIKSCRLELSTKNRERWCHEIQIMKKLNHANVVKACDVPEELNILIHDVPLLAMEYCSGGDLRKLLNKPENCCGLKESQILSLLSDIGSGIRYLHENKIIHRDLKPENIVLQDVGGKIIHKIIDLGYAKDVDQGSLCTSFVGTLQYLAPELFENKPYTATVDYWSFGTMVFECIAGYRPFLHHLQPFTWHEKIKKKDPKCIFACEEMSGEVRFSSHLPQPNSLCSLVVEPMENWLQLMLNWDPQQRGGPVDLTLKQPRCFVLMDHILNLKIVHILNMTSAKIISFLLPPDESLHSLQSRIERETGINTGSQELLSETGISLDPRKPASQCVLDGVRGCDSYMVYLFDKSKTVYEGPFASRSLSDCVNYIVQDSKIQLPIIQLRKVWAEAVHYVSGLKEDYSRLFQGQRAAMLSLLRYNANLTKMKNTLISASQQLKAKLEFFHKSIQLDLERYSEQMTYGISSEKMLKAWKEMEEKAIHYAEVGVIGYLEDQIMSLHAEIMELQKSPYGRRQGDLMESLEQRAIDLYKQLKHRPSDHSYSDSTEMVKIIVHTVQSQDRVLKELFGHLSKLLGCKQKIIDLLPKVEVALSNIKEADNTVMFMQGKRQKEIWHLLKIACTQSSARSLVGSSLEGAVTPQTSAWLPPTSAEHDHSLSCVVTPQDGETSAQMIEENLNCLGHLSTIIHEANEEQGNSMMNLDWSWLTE
Description: The inhibition of IKKα and IKKβ by the compounds of the present invention was determined with the following assay that measures the phosphorylation of the IκBα substrate by the respective kinases. The enzymes used in the assay were N-terminally flag-tagged versions of the human IKKβ or IKKα and the substrate was a GST fusion protein with IκBα (amino acids 1-54).
The reaction mixtures (60 μl) contained 20 mM HEPES pH 7.5, 10 mM MgCl2, 2 mM MnCl2, 100 mM NaCl, 100 μM Na3VO4, 20 mM β-glycerophosphate, 1 mM DTT, 2% DMSO, 250 nM ATP, 0.4 nM [^33P]ATP (specific activity, 3000 Ci/mmol), IκBα substrate, IKK enzyme and test compound. The reaction mixtures contained either 3.6 μg/ml IKKα and 245 μg/ml IκBα or 0.9 μg/ml IKKβ and 53 μg/ml IκBα.
Reactions were initiated by adding a solution of IκBα substrate and ATP to polypropylene plates containing IKK enzyme that was pre-incubated for 5 minutes with test compound. Then the reaction mixtures were incubated for 1 hour at 25° C., placed on ice and quenched by the addition of 150 μl 10% trichloroacetic acid and 5% disodium pyrophosphate. After mixing, the entire contents of the quenched reaction mixtures were transferred to a pre-wetted Packard UniFilter filtration plate, aspirated and washed 6 times with 250 μl of ddH2O using the Packard Filtermate Harvester. Filtration plates were then air dried, supplemented with 40 μl of Microscint 20 scintillation fluid and the ^33P-labeled reaction products were quantified using the Packard TopCount scintillation counter.
Compounds were tested in three-fold serial dilutions and inhibitor concentrations to achieve 50% inhibition of enzyme activity (i.e., IC50) were derived from dose-reponse curves using SAS software (SAS Institute, Cary N.C.). A non-linear regression analysis based on the Hill equation was applied to the percent inhibition versus concentration data. In all cases, compound concentrations were verified by HPLC.

Row | IC50 [1] [µM] | IC50 [2] [µM] | melting point [°C] | SMILES
1 | < 1 | ≤ 10 |  | CNC1CCN(c2cc(OCC(F)(F)F)c3c(N)c(C(N)=O)sc3n2)CC1 [3-Amino-6-(4-methylamino-piperidin-1-yl)-4-(2,2,2-trifluoro-ethoxy)-thieno[2,3-b]pyridine-2-carboxylic acid amide]
2 | < 1 | ≤ 10 |  | CNC1CCN(c2cc(SC)c3c(N)c(C(N)=O)sc3n2)CC1 [3-Amino-6-(4-methylamino-piperidin-1-yl)-4-methylsulfanyl-thieno[2,3-b]pyridine-2-carboxylic acid amide]
3 | < 1 | ≤ 10 |  | CNC1CCN(c2cc(C(F)(F)F)c3c(N)c(C(N)=O)sc3n2)CC1 [3-Amino-6-(4-methylamino-piperidin-1-yl)-4-trifluoromethyl-thieno[2,3-b]pyridine-2-carboxylic acid amide]
4 | < 1 | ≤ 10 |  | NC(=O)c1sc2nc(N3CCC(NCC(O)c4ccc(-c5nccs5)cc4)CC3)cc(C(F)(F)F)c2c1N (stereo not drawn) [3-Amino-6-{4-[2-hydroxy-2-(4-thiazol-2-yl-phenyl)-ethylamino]-piperidin-1-yl}-4-trifluoromethyl-thieno[2,3-b]pyridine-2-carboxylic acid amide]

The next lines start with the compound.

Row | SMILES | IC50 [1] [µM] | IC50 [2] [µM] | melting point [°C]
5 | CCCc1cc(N2CCC(NCC(O)c3ccc(-c4nccn4C)cc3)CC2)nc2sc(C(N)=O)c(N)c12 (stereo not drawn) [3-Amino-6-(4-{2-hydroxy-2-[4-(1-methyl-1H-imidazol-2-yl)-phenyl]-ethylamino}-piperidin-1-yl)-4-propyl-thieno[2,3-b] pyridine-2-carboxylic acid amide] | < 1 | ≤ 10 | 
6 | CCCc1cc(N2CCC(NCC(=O)N3CCC(O)CC3)CC2)nc2sc(C(N)=O)c(N)c12 [3-Amino-6-{4-[2-(4-hydroxy-piperidin-1-yl)-2-oxo-ethylamino]-piperidin-1-yl}-4-propyl-thieno[2,3-b] pyridine-2-carboxylic acid amide] | < 1 | ≤ 10 | 
7 | CCCc1cc(N2CCC(NCC(O)c3ccc(-n4ccnc4)cc3)CC2)nc2sc(C(N)=O)c(N)c12 (stereo not drawn) [3-Amino-6-{4-[2-hydroxy-2-(4-imidazol-1-yl-phenyl)-ethylamino]-piperidin-1-yl}-4-propyl-thieno[2,3-b] pyridine-2-carboxylic acid amide] | < 1 | ≤ 10 | 
8 | NC(=O)c1sc2nc(N3CCC(NCC(O)c4ccc(-c5cnccn5)cc4)CC3)cc(C(F)(F)F)c2c1N (stereo not drawn) [3-Amino-6-{4-[2-hydroxy-2-(4-pyrazin-2-yl-phenyl)-ethylamino]-piperidin-1-yl}-4-trifluoromethyl-thieno[2,3-b]pyridine-2-carboxylic acid amide] | < 1 | ≤ 10 | 
9 | CCCc1cc(N2CCC(NCC(O)c3ccc(-c4cccnc4)cc3)CC2)nc2sc(C(N)=O)c(N)c12 (stereo not drawn) [3-Amino-6-{4-[2-hydroxy-2-(4-pyridin-3-yl-phenyl)-ethylamino]-piperidin-1-yl}-4-propyl-thieno[2,3-b] pyridine-2-carboxylic acid amide] | < 1 | ≤ 10 | 
10 | CCCc1cc(N2CCC(NCC(O)c3ccc(-c4nccs4)cc3)CC2)nc2sc(C(N)=O)c(N)c12 (stereo not drawn) [3-Amino-6-{4-[2-hydroxy-2-(4-thiazol-2-yl-phenyl)-ethylamino]-piperidin-1-yl}-4-propyl-thieno[2,3-b]pyridine-2-carboxylic acid amide] | < 1 | ≤ 10 | 
11 | CCCc1cc(N2CCC(NCC(=O)Nc3cccc4ccccc34)CC2)nc2sc(C(N)=O)c(N)c12 [3-Amino-6-{4-[(naphthalen-1-ylcarbamoylmethyl)-amino]-piperidin-1-yl}-4-propyl-thieno[2,3-b] pyridine-2-carboxylic acid amide] | < 1 | ≤ 10 | 
12 | COC(=O)c1ccc(/C=C/c2cc(N3CCC(N)CC3)nc3sc(C(N)=O)c(N)c23)cc1 [4-{(E)-2-[3-Amino-6-(4-amino-piperidin-1-yl)-2-carbamoyl-thieno[2,3-b]pyridin-4-yl]-vinyl}-benzoic acid methyl ester] | < 1 | ≤ 10 | 
13 | CCCc1cc(N2CCC(NCC(O)c3ccc(NS(C)(=O)=O)cc3)CC2)nc2sc(C(N)=O)c(N)c12 (stereo not drawn) [Example 12, 3-Amino-6-{4-[2-hydroxy-2-(4-methanesulfonylamino-phenyl)-ethylamino)-piperidin-1-yl]-4-propyl-thieno[2,3-b]pyridine-2-carboxylic acid amide] |  |  | 199 to 200
14 | CCCc1cc(N2CCC(NCC(=O)O)CC2)nc2sc(C(N)=O)c(N)c12 [[1-(3-Amino-2-carbamoyl-4-propyl-thieno[2,3-b]pyridin-6-yl)-piperidin-4-ylamino]-acetic acid] | < 1 | ≤ 10 | 
